We go through one compound from patent US20100331330A1, “METHODS AND COMPOSITIONS FOR TREATING ISCHEMIC STROKE” (priority 2006, published 2010).

For series [1], the system named is ICAM. The series can be described thus: ICAM immunohistochemistry of brain sections after MCAO. The class given is in vivo, rat. The following applies: rosiglitazone 0.1 mg/kg or pioglitazone 1 mg/kg 24 h before and at time of MCAO; sacrificed 24 h later.
From the text: Animals were euthanized and brains prepared in the same manner described for infarct volume determination. Frozen sections of the brains were cut coronally at ten microns. Sections were collected every 1000 mm beginning at the level of the forceps minor corpus callosum and extending through the hippocampus. Ten micron cryostat sections were labeled using either mouse anti-ICAM (Sertec, UK) or rabbit antimyeloperoxidase (Dacko) antibodies in 5% rat serum. Primary antibodies were visualized using either goat anti-mouse conjugated to Oregon Green or goat anti-rabbit conjugated to Oregon-Green (Molecular Probes, Eugene, Oreg.) in 5% rat serum. Adjacent sections were incubated without primary antisera to control for non-specific binding of the secondary antiserum. Sections were viewed using a fluorescent microscope and images acquired and stored using Spot Advanced imaging software (Spot Image Corporation, Chantilly, Va.). Some sections were also imaged using confocal microscopy.
The conditions of series [2]: two hour continuous monitoring; previously shown; cited from earlier work.
Series [3] concerns rats subjected to middle cerebral artery occlusion (MCAO). As to conditions: for infarction volume relative to vehicle injected rats: assayed 24 h after MCAO. The source says: Male Wistar rats, 250-350 g, were obtained from Charles River (Wilmington, Mass.). Animals were housed and cared for in the Animal Resource Center and allowed free access to food and water before and after surgery. All procedures were approved by the Institutional Animal Care and Use Committee of Case Western Reserve University.
A 4.0 nylon suture with a flame rounded tip was advanced through the internal carotid artery to occlude the MCA while cerebral blood flow was monitored using laser doppler (Perimed AB, Jarfalla, Sweden). At the time of reperfusion rats were again anesthetized and the suture removed with cerebral blood flow monitoring to ensure reperfusion. Arterial blood pressure, arterial blood gases and temperature were all monitored and controlled during the length of the procedure.
Control animals were injected with 0.1 ml DMSO.
Rats were euthanized by exposure to 5% halothane until breathing ceased. They then underwent intracardiac perfusion first with PBS and then with 4% paraformaldehyde. Brains were isolated and immersion fixed in 4% paraformaldehyde overnight. Tissue was cryoprotected in 30% sucrose in PBS. Twenty micron frozen sections were collected every […] beginning at the level of the forceps minor corpus callosum and extending through the hippocampus. Sections were stained with Thionin and the area of infarction measured using Bioquant computer software (R&M Biometrics, Nashville, Tenn.) by subtracting the uninfarcted tissue in the ischemic hemisphere from the volume of the contralateral hemisphere. This method corrects for post-ischemic edema.
Male Wistar rats, 250-350 g, were obtained from Charles River (Wilmington, Mass.). […] Animals were housed and cared for in the Animal Resource Center and allowed free access to food and water before and after surgery. […] The tail artery was exposed and cannulated to measure mean arterial blood pressure and to obtain blood for blood gas measurements during surgery. Animals in which normal temperature, blood pressure and gases could not be maintained were excluded from the study. MCAO was performed as previously described. Briefly, the bifurcation of the common carotid artery was exposed. The external carotid artery was isolated and a suture placed 0.5 cm from the bifurcation. Following electrocoagulation distal to the suture the external carotid was cut between the suture and the electrocoagulated segment. A suture was applied to the common carotid artery such that it could be removed later. A loop of suture was then placed under the internal carotid artery and the artery elevated to transiently occlude blood flow. A small nick was made in the wall of the external carotid artery. Through this nick a 22 mm length of 4.0 Ethicon suture, its tip rounded by heating near a flame, was gently threaded from the external to the internal carotid artery lumen to a distance of 18 mm from the bifurcation of the carotid. The thread was held in place with a suture around the stump of the external carotid artery and the suture around the internal carotid artery released. The catheter was removed from the tail artery and both incisions were closed. The rats were then allowed to recover from anesthesia. […] The neck incision was reopened and the 4.0 Ethicon suture removed. The suture that held it in place was tightened and the suture around the common carotid artery was removed. After confirmation of reperfusion by visual inspection, the incision was closed and the animal allowed to recover.
Twenty micron frozen sections of paraformaldehyde fixed brains were collected every 1000 μm beginning at the level of the forceps minor corpus callosum and extending through the hippocampus. The slides were stained with Thionin. The sections were then trans-illuminated and the image transmitted to a computer screen.

Series [4] relates to rodent models of cerebral ischemia. The following applies: cited from earlier work.
Series [5] deals with 3T3-L1 cells. The following applies: cited from earlier work.
The test system of series [6] is dopaminergic cell death. The following applies: Parkinson's disease model; cited from earlier work.
Series [7] relates to ICAM mRNA. The series can be described thus: ICAM mRNA by real time PCR after MCAO. The class given is in vivo, rat. As to conditions: rosiglitazone 0.1 mg/kg or pioglitazone 1 mg/kg 24 h before and at time of 2 hour MCAO; sacrificed 24 h later. Background: Real-time PCR tracks product formation cycle by cycle.
For series [8], the system named is myeloperoxidase-IR cells. The series can be described thus: Quantification of myeloperoxidase-IR cells (leukocyte infiltration) after MCAO. The class given is in vivo, rat.
From the text: Frozen sections of the brains were cut coronally at ten microns. Sections were collected every 1000 mm beginning at the level of the forceps minor corpus callosum and extending through the hippocampus. Ten micron cryostat sections were labeled using either mouse anti-ICAM (Sertec, UK) or rabbit antimyeloperoxidase (Dacko) antibodies in 5% rat serum. Primary antibodies were visualized using either goat anti-mouse conjugated to Oregon Green or goat anti-rabbit conjugated to Oregon-Green (Molecular Probes, Eugene, Oreg.) in 5% rat serum. Adjacent sections were incubated without primary antisera to control for non-specific binding of the secondary antiserum. Sections were viewed using a fluorescent microscope and images acquired and stored using Spot Advanced imaging software (Spot Image Corporation, Chantilly, Va.). […]
Myeloperoxidase-IR cells were quantified from cryostat sections through the maximal area of infarction labeled with rabbit anti-myeloperoxidase antibody followed by anti-rabbit antibodies conjugated to Oregon-green. Digital photographs of high powered fields covering a representative section were analyzed in Adobe Photoshop by overlaying a grid and counting all myeloperoxidase-IR cells. The average number of myeloperoxidase-IR cells per high powered field (360 μm2) was calculated and plotted using data from at least three animals.
For series [9], the system named is LPL mRNA. Nature of the series: Lipoprotein lipase (LPL) mRNA by real time PCR after MCAO. The format is in vivo, rat. The following applies: rosiglitazone 0.1 mg/kg, pioglitazone 1.0 mg/kg; 24 h before and at time of 2 hour MCAO; tissue 24 h later. An excerpt:
At the time of sacrifice the animal was placed in an anesthesia chamber and exposed to 5% halothane, 30% oxygen, 65% nitrous oxide until it ceased breathing. The rat was the, processed for either histologic and immunocytochemical analysis or decapitated and the brain immediately dissected for mRNA isolation. Animals used for immunohistochemistry underwent intracardiac perfusion; the thoracic cavity was opened, a blunt needle placed through the left ventricle into the aorta and the right atrium cut. Animals were perfused through the heart, first with 0.1 M phosphate buffer and then with 4% paraformaldehyde (pH 7.4). The brain was removed from the rat and immersion fixed in 4% paraformaldehyde for an additional hour. Tissue was then transferred to 30% sucrose in phosphate buffer in order to cyroprotect it. Brains were mounted in OCT sectioning medium and frozen sections cut at either twenty microns (for infarct volume determination) or ten microns (for immunocytochemistry). Animals used in real time PCR experiments were decapitated after euthanasia and the brain quickly removed.
A 2 mm thick coronal slice of tissue through the area of maximal infarction was quickly homogenized in Trizol (Gibco BRL, Rockville, Md.). […] RNA was isolated using Life Technologies Protocol (Rockville, Md.), and cDNA synthesized from 1.5 μg of total RNA. […]

Molecules are shown by their SMILES. “Also recorded” adds a separate entry of the source. Where two headings read alike, the source gives them in different places.

As to `CCc1ccc(CCOc2ccc(CC3SC(=O)NC3=O)cc2)nc1` (stereo not shown) [pioglitazone, 5-[4-[2-(5-ethylpyridin-2-yl)ethoxyl]benzyl]thiazolidine-2,4-dione], in series [1], the “ICAM-IR in brain sections compared with vehicle treated rats” value was “less is seen”. For the same compound, the cerebral blood flow entry in [2] is “no significant change in cerebral blood flow”. The “infarction volume relative to vehicle injected rats” value was “did not significantly reduce infarction volume” in series [3] (0.5 mg/kg IP 24 h before and at time of 2 hour MCAO); “significantly reduced infarction size” in series [3] (1 mg/kg IP 24 h before and at time of 2 hour MCAO); “did significantly reduce infarction volume; also recorded: significantly reduced infarction volume” in [3] (1 mg/kg IP 24 h before and at time of 2 hour MCAO, listed as Pioglitazone); “did significantly reduce infarction volume” in [3] (3.5 mg/kg IP 24 h before and at time of 2 hour MCAO); “protection was lost” in series [3] (7 mg/kg IP 24 h before and at time of 2 hour MCAO). Further, the “infarct volume compared to vehicle treated rats” value in series [3] (1 mg/kg IP 1 hour after onset of 2 hour MCAO) is “significantly reduce infarction volume; also recorded: significantly reduced”; in series [3] (1 mg/kg IP 6 hours after onset of 2 hour MCAO), “not when given three or six hours after MCAO; also recorded: no significant change in infarct volume”; in [3] (pioglitazone 1 mg/kg or rosiglitazone 0.1 mg/kg 3 hours after MCAO onset, reperfusion at 2 hours (before treatment)) it was “not when given three or six hours after MCAO; also recorded: infarction volumes which were similar to animals injected with vehicle; also recorded: no significant change in infarct volume; also recorded: infarction volumes similar to those previously seen in untreated and vehicle treated rats”. The “infarction volume relative to vehicle treated rats” value in [3] (1 mg/kg IP 24 h before and at time of MCAO, permanent occlusion, listed as Pioglitazone) is recorded as “no significant protection was evident”. In series [3] (IP 24 h before and at time of 2 hour MCAO, infarct volume 24 h after MCAO), the “optimal dose for neuroprotection” value worked out at 1 mg/kg. Moreover, the “infarction volume relative to rats reperfused at two hours” value in series [3] (pioglitazone 1 mg/kg or rosiglitazone 0.1 mg/kg 3 hours after MCAO onset, reperfusion at 3 hours 15 minutes (after treatment)) is “neuroprotective when given up to three hours after MCAO, but only if reperfusion occurs after treatment; also recorded: significantly smaller infarctions volumes; also recorded: significantly reduced infarction volumes”. In [4] (in vivo), the “neuroprotection in rodent models of cerebral ischemia” value is listed as “effective neuroprotective agents”. The “efficacy of oral pretreatment” value in [4] (permanent ischemia) is on record as “but not permanent ischemia”; in series [4] (transient ischemia), “effective in transient”. The “effect on PPARγ-corepressor complex” value in series [5] is “dissociation of the PPARγ-corepressor complex and transcriptional activation”. The dopaminergic cell death result in series [6] is “attenuates dopaminergic cell death”. Further, the “ICAM mRNA compared with vehicle treated rats” value in series [7] is “significant reduction in ICAM mRNA”. Moreover, the “myeloperoxidase-IR cells within the ischemic hemisphere” value in [8] (reperfused at 2 h and treated at 3 h, relative to treated at 3 h and reperfused at 3.25 h) is “significantly increased numbers of myeloperoxidase-IR cells”. Moreover, the “number of myeloperoxidase-IR cells per high powered field” value in series [8] (rosiglitazone 0.1 mg/kg or pioglitazone 1 mg/kg at 3 h, reperfusion delayed to 3.25 h, relative to reperfusion at 2 h) is “significantly reduced”. Besides, the “increase in LPL mRNA levels within the ischemic hemisphere” value in [9] amounted to 307%.
